From patent publication US6559159B2, “Kappa opioid receptor ligands” (Research Triangle Institute, priority 2001, dated 2003)

Key:
delta opioid receptor [1] = target: T1, delta opioid receptor (Cavia porcellus, UniProt A0A286XTF2); assay: Inhibition of SNC-80-stimulated [35S]GTPγS binding in guinea pig caudate; type: biochemical; details: 50% attenuation of SNC80 (10 μM)-stimulated [35S]GTP-γ-S binding, ± SD, read-out: Apparent Functional Ki SNC-80
T1 construct: as measured in guinea pig caudate membranes; from tissue; host or cells: guinea pig caudate membranes

kappa opioid receptor [2] = target: T2, kappa opioid receptor (Homo sapiens, UniProt P41145); assay: Radioligand competitive binding, [3H]U69,593; details: for Ki: radioligand binding, kappa, ± SD; for delta/kappa selectivity ratio (binding) / mu/kappa selectivity ratio (binding): column head not printed in Table 1
kappa opioid receptor [3] = target: T3, kappa opioid receptor (Cavia porcellus, UniProt P41144); assay: Inhibition of U69,593-stimulated [35S]GTPγS binding in guinea pig caudate; type: biochemical; details: for Ki: 50% attenuation of U69,593 (10 μM)-stimulated [35S]GTP-γ-S binding, ± SD, read-out: Apparent Functional Ki U69,593; for δ/κ / μ/κ: ratio of apparent functional Ki
T3 construct: as measured in guinea pig caudate membranes; from tissue; host or cells: guinea pig caudate membranes

mu opioid receptor [4] = target: T4, mu opioid receptor (Homo sapiens, UniProt P35372); assay: Radioligand competitive binding, [3H]DAMGO; details: for Ki: radioligand binding, mu, ± SD
mu opioid receptor [5] = target: mu opioid receptor (Cavia porcellus, UniProt A0ACM8Q262); assay: Inhibition of DAMGO-stimulated [35S]GTPγS binding in guinea pig caudate; type: biochemical; details: 50% attenuation of DAMGO (10 μM)-stimulated [35S]GTP-γ-S binding, ± SD, read-out: Apparent Functional Ki DAMGO
delta opioid receptor [6] = target: T5, delta opioid receptor (Homo sapiens, UniProt P41143); assay: Radioligand competitive binding, [3H]DADLE; details: for Ki: delta, ± SD
mu opioid receptor [7] = target: T4, mu opioid receptor; assay: Inhibition of DAMGO-stimulated [35S]GTPγS binding in cloned human opioid receptors; type: biochemical; parameters: expressed in transfected cells; details: 50% attenuation of DAMGO (10 μM)-stimulated [35S]GTP-γ-S binding, ± SD, read-out: Apparent Functional Ki DAMGO
delta opioid receptor [8] = target: T5, delta opioid receptor; assay: Inhibition of SNC-80-stimulated [35S]GTPγS binding in cloned human opioid receptors; type: biochemical; parameters: expressed in transfected cells; details: 50% attenuation of SNC80 (10 μM)-stimulated [35S]GTP-γ-S binding, ± SD, read-out: Apparent Functional Ki SNC-80
kappa opioid receptor [9] = target: T2, kappa opioid receptor; assay: Inhibition of U69,593-stimulated [35S]GTPγS binding in cloned human opioid receptors; type: biochemical; parameters: expressed in transfected cells
[10] = ratio of apparent functional Ki, cloned human receptors

SMILES	Ki (delta opioid receptor [1]) [nM]	Ki (kappa opioid receptor [2]) [nM]	delta/kappa selectivity ratio (binding) (kappa opioid receptor [2]; ratio of binding Ki)	mu/kappa selectivity ratio (binding) (kappa opioid receptor [2]; ratio of binding Ki)	Ki (kappa opioid receptor [3]) [nM]	δ/κ (kappa opioid receptor [3])	μ/κ (kappa opioid receptor [3])	Ki (mu opioid receptor [4]) [nM]	Ki (mu opioid receptor [5]) [nM]	Ki (delta opioid receptor [6]) [nM]	delta/kappa selectivity profile (binding, text) (kappa opioid receptor [2]; ratio of binding Ki) [fold]	affinity for the mu receptor lower than compound 10 (mu opioid receptor [4]; binding Ki of 12 relative to 10) [fold]	Ki (mu opioid receptor [7]) [nM]	Ki (delta opioid receptor [8]) [nM]	Ki (kappa opioid receptor [9]; cloned human opioid receptors, 50% attenuation of U69,593 (10 μM)-stimulated [35S]GTP-γ-S binding, ± SD, read-out: Apparent Functional Ki U69,593) [nM]	δ/κ (kappa opioid receptor [9]; [10])	μ/κ (kappa opioid receptor [9]; [10])	affinity for the delta receptor (in words) (delta opioid receptor [6]; within the testing parameters)
Oc1ccc2c3c1O[C@H]1c4[nH]c5c(c4C[C@@]4(O)[C@@H](C2)N(CC2CC2)CC[C@]314)C[C@@]1(O)[C@H]2Cc3ccc(O)c4c3[C@@]1(CCN2CC1CC1)[C@H]5O4 [6, nor-BNI, norbinaltorphimine]	86 ± 7.2																	
CC1C2CCCC1(c1cccc(O)c1)CCN2CCc1ccccc1 (stereo not drawn) [Compound 10, N-phenethyl-9β-methyl-5-(3-hydroxyphenyl)morphan, reference compound]	12.6 ± 1.01	14.5 ± 0.99	19	0.21	1.34 ± 0.084	9.4	0.25	3.11	0.338 ± 0.028	272 ± 30								
C[C@@H]1CN(CCCc2ccccc2)[C@H]2C[C@H](NC(=O)CCN3CCCCC3)C[C@]1(c1cccc(O)c1)C2 [Compound 12, (−)-N-[(1R,4S,5S, 7R)-5-(3-hydroxy)phenyl-4-methyl-2-(3-phenylpropyl)-2-azabicyclo[3.3.1]non-7-yl]-3-(1-piperidinyl)propanamide]	> 300	4.3	>790	34	0.48 ± 0.06	>625	70	147	33.6 ± 10.4	> 3400	> 790	~50	35.8 ± 6.8	> 100	0.56 ± 0.08	>178	64	no affinity
C[C@@H]1CN(CCCc2ccccc2)[C@H]2C[C@H](NC(=O)CCCN(C)C)C[C@]1(c1cccc(O)c1)C2 [Compound 13, 4-(dimethylamino)-N-[(1R,4S,5S,7R)-5-(3-hydroxyphenyl)-4-methyl-2-(3-phenylpropyl)-2-azabicyclo[3.3.1]non-7-yl]butanamide]		11.9 ± 0.65	122	5				57 ± 5.4		1460 ± 113								
